Several values for one entry are separate records, joined by “and”; a condition that tells them apart may be missing. Equal entries are not always repeated. Where two headings read alike, the source gives them in different places.
How the values were obtained:
[1] = target: SARS-CoV-2 NSP3 macrodomain (Mac1), P43 crystal form (Severe acute respiratory syndrome coronavirus 2, UniProt P0DTD1); assay type: binding; conditions: for 1-BDC: PanDDA background density correction; for Total number of conformations: ligand conformations modeled in Mac1 crystal structure; for X-ray crystallography: Binding site: site where the ligand is bound in the X-ray crystal structure
[2] = target: SARS-CoV-2 NSP3 macrodomain (Mac1) (Severe acute respiratory syndrome coronavirus 2, UniProt P0DTD1); test: biochemical; assay type: binding; conditions: for SARS CoV-2 macrodomain HTRF assay: Hillslope: dose-response fit
[3] = occupancy estimate from PanDDA BDC
[4] = crystal soak concentration 10 mM, event 1
[5] = crystal soak concentration 10 mM, P43 crystals
[6] = crystal soak concentration 10 mM
[7] = TRUE = crystal structure with ligand determined
[8] = occupancy estimate from PanDDA 1-BDC
[9] = site of Mac1 where ligand bound in crystal structure
[10] = Single dose, 200 μM, mean of three technical replicates, read-out: Average % competition
[11] = preliminary screen, compound at 200 μM, mean of 3-4 technical replicates, read-out: % competition in HTRF assay
[12] = X-ray crystal structure determined (TRUE)
[13] = site of ligand in X-ray crystal structure
[14] = SARS CoV-2 macrodomain HTRF assay, dose-response
[15] = Single dose, concentration 200 μM, read-out: Average % competition
[16] = crystal soak, soak concentration 10 mM
[17] = crystal soak, soak concentration 10 mM, TRUE = ligand hit
[18] = crystal soak concentration 20 mM, P43 crystals

Row | SMILES | Occupancy difference (refined_occupancy - 2*(1-BDC)) [1] | Refined ligand occupancy (%) [1] [%] | PanDDA run, DMSO background map: 1-BDC ([1]; event 1) | 1-BDC [1] | Total number of conformations [1] | 2*(1-BDC) (%) [1, 3] [%] | X-ray crystallography: Binding site [1] | Hill slope ([2]; HTRF dose-response fit, Mac1) | SARS CoV-2 macrodomain HTRF assay: Hillslope [2] | PanDDA run, DMSO background map: 1-BDC [1, 4] | Pandda run, overall: Hit [1, 5] | PanDDA run, DMSO background map: Hit [1, 6] | 2*(1-BDC) (%) [1, 8] [%] | inhibition at 200 µM [2, 11] [%] | also measured
1 | O=S1(=O)CCCC(O)(CNc2ncnc3[nH]ccc23)C1 (centres unmarked) [AVI-4317] | 14 | 100 | 0.43 and 0.45 | 0.43 | 1 | 86 | Adenosine | 1.2 | 1.2 | – | – | – | – | – | Comment ([1]; comment on ligand modeling / Phe132 loop density): High occupancy, use manual refinement, DMSO
2 | OC1(CNc2ncnc3[nH]ccc23)COC2CC1C2 (centres unmarked) [AVI-4313] | 0 | 38 | 0.19 and 0.2 | 0.19 | 1 | 38 | Adenosine | 1.2 | 1.2 | – | – | – | – | – | –
3 | OC1(CNc2ncnc3[nH]ccc23)CCSCC1 [AVI-4319] | 0 | 32 | 0.16 and 0.17 | 0.16 | 1 | 32 | Adenosine | 1.2 | 1.2 | – | – | – | – | – | –
4 | Cc1c[nH]c2ncnc(NCC3(O)CCC(C)CC3)c12 (centres unmarked) [AVI-4331] | 0 | 54 | – | 0.27 | 1 | 54 | Adenosine | 1.2 | 1.2 | 0.23 | TRUE | TRUE | – | – | Pandda run, overall: Hit ([1]; crystal soak 10 mM, P43 crystals, TRUE = ligand identified by PanDDA): TRUE; PanDDA run, DMSO background map: Hit ([1]; crystal soak 10 mM): TRUE; PanDDA run, DMSO background map: 1-BDC ([1]; crystal soak 10 mM, event 1): 0.27; Pandda run, overall: Modeling comment [1, 5]: Duplicate, not modeled
5 | Cc1sc2ncnc(Sc3ccccc3C(=O)O)c2c1C [AVI-317] | – | – | 0.18 | 0.15 | 2 | – | – | – | – | 0.17 and 0.15 | TRUE | TRUE | 30 | 24 | X-ray crystal structure [1, 7]: TRUE; Pandda run, overall: Modeled [1, 5]: TRUE; Pandda run, overall: Modeling comment [1, 5]: Duplicate, not modeled; PanDDA run, DMSO background map: Modeled [1, 6]: TRUE; Binding site [1, 9]: Adenosine; inhibition at 200 µM [2, 10]: 24%
6 | CC(C)(CO)Nc1ncnc2[nH]ccc12 [AVI-5266] | 16 | 40 | 0.12 | 0.12 | 1 | 24 | – | 1.1 | – | – | – | – | – | 56 | X-ray crystal structure [1, 12]: TRUE; Binding site [1, 13]: Adenosine; Hill slope [2, 14]: 1.1; inhibition at 200 µM [2, 15]: 56%
7 | OCCC(CO)Nc1ncnc2[nH]ccc12 (centres unmarked) [AVI-3734] | – | – | – | 0.25 | 1 | – | – | 1.2 | – | – | – | – | 50 | 86 | X-ray crystal structure [1, 12]: TRUE; Pandda run, overall: Modeled [1, 16]: TRUE; Pandda run, overall: Hit [1, 17]: TRUE; Binding site [1, 13]: Adenosine; PanDDA run, DMSO background map: 1-BDC ([1]; soak concentration 10 mM): 0.25; PanDDA run, DMSO background map: Hit ([1]; soak concentration 10 mM): TRUE; Hill slope [2, 14]: 1.2; inhibition at 200 µM [2, 15]: 86%
8 | O[C@H]1CC[C@H]2CCN(c3ncnc4[nH]ccc34)[C@H]21 [AVI-5997] | 12 | 70 | 0.28 and 0.29 | 0.29 | 1 | 58 | Adenosine | 1.2 | 1.2 | – | – | – | – | – | –
9 | OC[C@@H]1C[C@@H]2CCC[C@@H]2N1c1ncnc2[nH]ccc12 [AVI-3720] | – | – | – | 0.29 | 1 | – | Adenosine | 1.2 | 1.2 | – | – | – | 58 | 92 | Phe132 loop open state ([1]; TRUE = open state of Phe132 loop modeled): TRUE; Pandda run, overall: Modeled [1, 16]: TRUE; Pandda run, overall: Hit [1, 17]: TRUE; PanDDA run, DMSO background map: 1-BDC ([1]; soak concentration 10 mM): 0.29; PanDDA run, DMSO background map: Hit ([1]; soak concentration 10 mM): TRUE; inhibition at 200 µM ([2]; Single dose, concentration 200 μM, read-out: SARS CoV-2 macrodomain HTRF assay: Average % competition): 92%
10 | OCC(Cc1ccccc1)Nc1ncnc2[nH]ccc12 (centres unmarked) [AVI-313] | – | – | – | 0.18 | 2 | – | – | 1.2 | – | 0.18 | TRUE | TRUE | 36 | 75 | X-ray crystal structure [1, 7]: TRUE; Pandda run, overall: Modeled [1, 5]: TRUE; PanDDA run, DMSO background map: Modeled [1, 6]: TRUE; PanDDA run, DMSO background map: Hit ([1]; crystal soak concentration 20 mM): TRUE; PanDDA run, DMSO background map: 1-BDC ([1]; crystal soak concentration 20 mM, event 1): 0.25; Pandda run, overall: Hit [1, 18]: TRUE; Pandda run, overall: Modeling comment [1, 18]: Duplicate, not modeled; Binding site [1, 9]: Adenosine; Hill slope ([2]; Dose-response, SARS CoV-2 macrodomain HTRF assay): 1.2; inhibition at 200 µM [2, 10]: 75%

Source: publication doi:10.1101/2024.08.25.609621 (bioRxiv, 2024)
